Laboratory results from US10221139B2, “Inhibitors of histone demethylases” (Gilead Sciences, Inc., priority 2012, dated 2019).

What was measured:
Assay type in all cases: biochemical
GASC1 (KDM4C, JMJD2C) = target: T1, GASC1 (KDM4C, JMJD2C) (Homo sapiens, UniProt Q9H3R0); assay: Histone lysine demethylase AlphaLISA assay, GASC1; conditions: substrate BK9M3
T1 construct: 1-349; host or cells: E. coli
T1 sequence (Q9H3R0 1-349): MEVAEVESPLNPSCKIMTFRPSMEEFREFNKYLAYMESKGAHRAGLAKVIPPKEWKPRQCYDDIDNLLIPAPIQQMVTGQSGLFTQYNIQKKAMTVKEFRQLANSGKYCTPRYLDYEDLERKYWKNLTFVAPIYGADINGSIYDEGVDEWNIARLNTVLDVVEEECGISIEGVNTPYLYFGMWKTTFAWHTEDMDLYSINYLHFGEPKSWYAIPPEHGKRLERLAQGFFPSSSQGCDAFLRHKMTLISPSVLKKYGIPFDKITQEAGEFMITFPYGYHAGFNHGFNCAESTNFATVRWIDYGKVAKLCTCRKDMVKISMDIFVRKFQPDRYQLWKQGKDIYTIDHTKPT
Description: (§1) Example 2: Histone Lysine Demethylase AlphaLISA Assays for IC50 Value Determination
(§2) Assays are performed analogously to the protocol described by Perkin Elmer (Roy et al. Perkin Elmer Technical Note: AlphaLISA #12, April 2011).
(§3) Enzymes are dissolved in enzyme buffer and incubated for 10 min before 5 μL is added to 5 μL 3% DMSO solutions of compounds in enzyme buffer. Incubated for another 10 minutes, before 5 μL substrate solution is added and the reaction mixture is incubated at room temperature for the given period. 10 μL acceptor beads, suspended at given dilutions in Epigenetic Buffer (Perkin Elmer AL008) from stock, are added and the suspension is incubated 60 minutes in the dark at room temperature, before 10 μL suspension (at the given dilutions in Epigenetic Buffer) of streptavidin donor beads (Perkin Elmer 6760002) in Epigenetic Buffer is added. After incubation at room temperature in the dark the plates are read. Reaction conditions are seen in Table 2b.

UTX (KDM6A) = target: T2, UTX (KDM6A) (Homo sapiens, UniProt O15550); assay: Histone lysine demethylase AlphaLISA assay, UTX; conditions: substrate BK27M3
T2 construct: 919-1401; host or cells: E. coli
Description: as §1, §2, §3

PLU1 (KDM5B) = target: T3, PLU1 (KDM5B) (Homo sapiens, UniProt Q9UGL1); assay: Histone lysine demethylase AlphaLISA assay, PLU1; conditions: substrate H3K4M3B
T3 construct: 1-809; host or cells: E. coli
T3 sequence (Q9UGL1 1-809): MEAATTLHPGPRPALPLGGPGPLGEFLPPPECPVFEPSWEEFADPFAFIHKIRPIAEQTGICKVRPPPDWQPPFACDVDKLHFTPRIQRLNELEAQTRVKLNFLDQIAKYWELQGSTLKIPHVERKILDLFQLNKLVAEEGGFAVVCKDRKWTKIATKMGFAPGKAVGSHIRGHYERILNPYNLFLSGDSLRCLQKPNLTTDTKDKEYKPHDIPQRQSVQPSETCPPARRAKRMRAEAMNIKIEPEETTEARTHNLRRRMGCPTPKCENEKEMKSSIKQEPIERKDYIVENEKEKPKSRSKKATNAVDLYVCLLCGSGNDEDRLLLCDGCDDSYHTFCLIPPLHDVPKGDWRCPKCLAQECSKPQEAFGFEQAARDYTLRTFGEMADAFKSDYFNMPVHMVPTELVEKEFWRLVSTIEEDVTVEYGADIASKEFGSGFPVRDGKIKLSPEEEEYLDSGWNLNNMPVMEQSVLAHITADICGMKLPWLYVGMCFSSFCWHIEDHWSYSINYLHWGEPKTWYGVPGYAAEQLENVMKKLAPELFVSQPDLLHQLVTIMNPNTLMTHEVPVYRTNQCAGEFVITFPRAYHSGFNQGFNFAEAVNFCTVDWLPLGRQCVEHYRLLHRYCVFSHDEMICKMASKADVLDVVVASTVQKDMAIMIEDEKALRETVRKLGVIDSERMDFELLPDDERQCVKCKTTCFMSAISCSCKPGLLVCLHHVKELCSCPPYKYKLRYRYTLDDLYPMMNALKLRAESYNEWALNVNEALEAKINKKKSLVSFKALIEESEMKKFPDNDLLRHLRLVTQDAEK
Description: as §1, §2, §3

T2 sequence (O15550 919-1401): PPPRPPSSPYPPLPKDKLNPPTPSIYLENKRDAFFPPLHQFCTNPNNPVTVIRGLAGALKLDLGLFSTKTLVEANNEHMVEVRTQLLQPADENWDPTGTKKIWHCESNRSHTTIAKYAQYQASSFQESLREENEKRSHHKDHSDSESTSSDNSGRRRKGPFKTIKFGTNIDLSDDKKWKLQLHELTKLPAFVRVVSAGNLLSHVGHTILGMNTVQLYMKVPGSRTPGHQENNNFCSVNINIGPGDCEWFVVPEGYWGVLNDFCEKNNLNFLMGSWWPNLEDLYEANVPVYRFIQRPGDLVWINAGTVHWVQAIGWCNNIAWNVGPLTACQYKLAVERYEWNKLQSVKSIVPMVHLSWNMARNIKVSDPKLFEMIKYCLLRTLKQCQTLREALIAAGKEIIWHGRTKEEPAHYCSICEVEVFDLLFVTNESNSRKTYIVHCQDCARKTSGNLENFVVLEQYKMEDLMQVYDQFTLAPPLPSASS

Row | Compound | IC50 (GASC1 (KDM4C, JMJD2C)) [µM] | IC50 (UTX (KDM6A)) [µM] | IC50 (PLU1 (KDM5B)) [µM]
1 | C=CCN(CC=C)C(=O)CNCc1cc(C(=O)O)ccn1 [#17, 2-[({[bis(prop-2-en-1-yl)carbamoyl]methyl}amino)methyl]pyridine-4-carboxylic acid] | < 0.1 | ≥ 1 | < 0.1
2 | CCN(CCN(C)C)C(=O)CNCc1cc(C(=O)Nc2ncco2)ccn1 [#84, 2-{[({[2-(dimethylamino)ethyl](ethyl)carbamoyl}methyl)amino]methyl}-N-(1,3-oxazol-2-yl)pyridine-4-carboxamide] | < 0.1 | – | < 0.1
3 | CCCCCCCCCCCCCCCC(=O)OCC(COC(=O)c1ccnc(CNCC(=O)N(CC)CCN(C)C)c1)OC(=O)CCCCCCCCCCCCCCC (stereo not drawn) [#69, 1-(2-{[({[2-(dimethylamino)ethyl](ethyl)carbamoyl}methyl)amino]methyl}pyridine-4-carbonyloxy)-3-(hexadecanoyloxy)propan-2-yl hexadecanoate] | 0.1 to 1 | < 0.1 | 0.1 to 1
4 | O=C(O)c1ccnc(CNCC(=O)N2CCCC(Cc3nc4ccccc4[nH]3)C2)c1 (stereo not drawn) [#38, 2-[({2-[3-(1H-1,3-benzodiazol-2-ylmethyl)piperidin-1-yl]-2-oxoethyl}amino)methyl]pyridine-4-carboxylic acid] | < 0.1 | ≥ 1 | < 0.1
5 | O=C(CNCc1cc(C(=O)O)ccn1)NC1CCN(Cc2ccc(-c3ccccc3)o2)CC1 [#32, 2-({[({1-[(5-phenylfuran-2-yl)methyl]piperidin-4-yl}carbamoyl)methyl]amino}methyl)pyridine-4-carboxylic acid] | < 0.1 | ≥ 1 | < 0.1
6 | O=C(O)c1ccnc(CNCCCNCCOc2ccccc2)c1 [#41, 2-[({3-[(2-phenoxyethyl)amino)propyl}amino)methyl]pyridine-4-carboxylic acid] | < 0.1 | ≥ 1 | < 0.1
7 | CCN(CCN(C)C)C(=O)CNCc1cc(C(=O)OC(CNC(=O)C(F)(F)F)CC(=O)OC(C)C)ccn1 (stereo not drawn) [#73, propan-2-yl 3-(2-{[({[2-(dimethylamino)ethyl](ethyl)carbamoyl}methyl)amino]methyl}pyridine-4-carbonyloxy)-4-(trifluoroacetamido)butanoate] | 0.1 to 1 | – | 0.1 to 1
8 | C=CC(CCNC(=O)C(F)(F)F)OC(=O)c1ccnc(CNCC(=O)N(CC)CCN(C)C)c1 (stereo not drawn) [#66, 5-(trifluoroacetamido)pent-1-en-3-yl 2-{[({[2-(dimethylamino)ethyl](ethyl)carbamoyl}methyl)amino]methyl}pyridine-4-carboxylate] | 0.1 to 1 | < 0.1 | 0.1 to 1
9 | O=C(CNCc1cc(C(=O)O)ccn1)NC1CCN(Cc2ccco2)CC1 [#31, 2-{[({[1-(furan-2-ylmethyl)piperidin-4-yl]carbamoyl}methyl)amino]methyl}pyridine-4-carboxylic acid] | < 0.1 | 0.1 to 1 | < 0.1
10 | CCN(CCN(C)C)C(=O)CNCc1cc(C(=O)OC(C)CCNC(=O)C(F)(F)F)ccn1 (stereo not drawn) [#63, 4-(trifluoroacetamido)butan-2-yl 2-{[({[2-(dimethylamino)ethyl](ethyl)carbamoyl}methyl)amino]methyl}pyridine-4-carboxylate] | 0.1 to 1 | – | 0.1 to 1
11 | CCN(CCN(C)C)C(=O)CNCc1cc(C(=O)Oc2c(OC(C)C)cccc2OC(C)C)ccn1 [#85, 2,6-bis(propan-2-yloxy)phenyl 2-{[({[2-(dimethylamino)ethyl](ethyl)carbamoyl}methyl)amino]methyl}pyridine-4-carboxylate] | 0.1 to 1 | – | 0.1 to 1
12 | CCN(CCN(C)C)C(=O)CNCc1cc(C(=O)Nc2ccncc2)ccn1 [#75, 2-{[({[2-(dimethylamino)ethyl](ethyl)carbamoyl}methyl)amino]methyl}-N-(pyridin-4-yl)pyridine-4-carboxamide] | 0.1 to 1 | – | < 0.1
13 | O=C(O)c1ccnc(CNCCF)c1 [#8, 2-{[(2-fluoroethyl)amino]methyl}pyridine-4-carboxylic acid] | 0.1 to 1 | ≥ 1 | 0.1 to 1
14 | CCN(CCN(C)C)C(=O)CNCc1cc(C(=O)OC(C)CC(C)=O)ccn1 (stereo not drawn) [#62, 4-oxopentan-2-yl 2-{[({[2-(dimethylamino)ethyl](ethyl)carbamoyl}methyl)amino]methyl}pyridine-4-carboxylate] | < 0.1 | – | < 0.1
15 | O=C(O)c1ccnc(CNCc2ccc(-c3ccccc3)o2)c1 [#10, 2-({[(5-phenylfuran-2-yl)methyl]amino}methyl)pyridine-4-carboxylic acid] | ≥ 1 | ≥ 1 | 0.1 to 1
16 | CCOC(=O)c1ccccc1OC(=O)c1ccnc(CNCCCCN(CC)CC)c1 [#52, 2-(ethoxycarbonyl)phenyl 2-({[4-(diethylamino)butyl]amino}methyl)pyridine-4-carboxylate] | 0.1 to 1 | ≥ 1 | < 0.1
17 | CCN(CCN(C)C)C(=O)CNCc1cc(C(=O)Nc2nccn2C)ccn1 [#89, 2-{[({[2-(dimethylamino)ethyl](ethyl)carbamoyl}methyl)amino]methyl}-N-(1-methyl-1H-imidazol-2-yl)pyridine-4-carboxamide] | 0.1 to 1 | < 0.1 | < 0.1
18 | CCN(CCN(C)C)C(=O)CNCc1cc(C(=O)Nc2nnc(C)o2)ccn1 [#76, 2-{[({[2-(dimethylamino)ethyl](ethyl)carbamoyl}methyl)amino]methyl}-N-(5-methyl-1,3,4-oxadiazol-2-yl)pyridine-4-carboxamide] | < 0.1 | – | < 0.1
19 | O=C(O)c1ccnc(CN2CCCCC2)c1 [#78, 2-(piperidin-1-ylmethyl)pyridine-4-carboxylic acid] | ≥ 1 | – | ≥ 1
20 | CCN(CCN(C)C)C(=O)CNCc1cc(C(=O)Nc2ccnn2C)ccn1 [#77, 2-{[({[2-(dimethylamino)ethyl](ethyl)carbamoyl}methyl)amino]methyl}-N-(1-methyl-1H-pyrazol-5-yl)pyridine-4-carboxamide] | < 0.1 | – | < 0.1
21 | O=C(O)c1ccnc(CNCc2ccco2)c1 [#9, 2-{[(furan-2-ylmethyl)amino]methyl}pyridine-4-carboxylic acid] | < 0.1 | ≥ 1 | –
22 | CN(C)CCN(C)Cc1cc(C(=O)O)ccn1 [#6, 2-({[2-(dimethylamino)ethyl](methyl)amino}methyl)pyridine-4-carboxylic acid] | – | ≥ 1 | 0.1 to 1
23 | CCN(CCN(C)C)C(=O)CNCc1cc(C(=O)OC(CCNC(=O)C(F)(F)F)CC(=O)OC(C)C)ccn1 (stereo not drawn) [#74, propan-2-yl 3-(2-{[({[2-(dimethylamino)ethyl](ethyl)carbamoyl}methyl)amino]methyl}pyridine-4-carbonyloxy)-5-(trifluoroacetamido)pentanoate] | 0.1 to 1 | – | < 0.1
24 | CC(C)C[C@@H](C(=O)N1CCCCC1)N(C)Cc1cc(C(=O)O)ccn1 [#93, 2-({methyl[(2S)-4-methyl-1-oxo-1-(piperidin-1-yl)pentan-2-yl]amino}methyl)pyridine-4-carboxylic acid] | ≥ 1 | – | ≥ 1
25 | CCN(CCN(C)C)C(=O)CNCc1cc(C(=O)Oc2ccc(C(C)(C)C)cc2)ccn1 [#61, 4-tert-butylphenyl 2-{[({[2-(dimethylamino)ethyl](ethyl)carbamoyl}methyl)amino]methyl}pyridine-4-carboxylate] | < 0.1 | – | < 0.1
26 | COC(=O)c1ccnc(CNCCCN2CCCC2)c1 [#47, methyl 2-({[3-(pyrrolidin-1-yl)propyl]amino}methyl)pyridine-4-carboxylate] | ≥ 1 | – | 0.1 to 1
